Values after ≈ are worked out from the molar mass of the structure shown. Read-outs that look alike come from different tables or passages of the source.
How the values were obtained:
Experiment in all cases: Antifungal MIC/MLC (broth microdilution)
C. krusei ATCC 6258 = type: cell-based, Candida krusei
Procedure: (§1) The antifungal activity of compound 1 was evaluated for a wide range of fungal species, covering yeasts and filamentous fungi, including dermatophytes. […] This antimicrobial effect was fungicidal, with minimal lethal concentrations (MLC) being equal to, or one or two-fold higher than the respective MIC. Twenty-three fungal strains were used in this study, including reference strains and clinical isolates of yeasts and filamentous fungi. Yeast strains included reference strains (ATCC—American Type Culture Collection and CECT—Colección Española de Cultivos Tipo) and clinical isolates: C. albicans ATCC 10231, Candida krusei ATCC 6258, C. albicans H37, C. albicans FF172, C. albicans FF176, C. albicans DSY294, C. albicans DSY296, C. glabrata DSY562, C. glabrata DSY565 and Cryptococcus neoformans CECT 1078. Filamentous fungi included Aspergillus fumigatus ATCC 240305, A. fumigatus C111, A. niger ATCC 16404, A. flavus F44, Fusarium solani FF125, F. oxysporum FF115, and dermatophytes Trichophyton rubrum FF5, T. mentagrophytes FF7, Microscoporum canis FF1 and Nannizzia gypsea FF3 (formerly Microsporum gypseum) and a species of genera Mucor, Lichetheimia and Scedosporium. Saprolegnia parasitica CBS 223.65, a reference strain of an oomycete fish pathogen, was also included. All microorganisms were kept in Sabouraud Dextrose Broth (SDB: BioMérieux, Marcy L'Etoile, France) plus glycerol (20%) at −80° C. The strains were kept in Sabouraud Dextrose Agar (SDA: BioMérieux, Marcy L'Etoile, France) slants and were sub-cultured in SDA before each test. S. parasitica was kept in Corn Meal Agar plates (CMA: BBL™ Corn Meal Agar, BD, Le Pont-de-Claix, France) and was sub-cultured in CMA before each experiment. C. albicans H37, was kindly provided by Cidilia Pina Vaz (CHSJ, Porto, Portugal) and C. albicans DSY294, C. albicans DSY296, C. glabrata DSY562, C. glabrata DSY565 were kindly provided by D. Sanglard (University of Lausanne, Switzerland). A stock solution of compound 1 (10 mg/mL), was prepared in dimethyl sulfoxide (DMSO 99%: Alfa Aesar, Kandel, Germany), kept at −20 degrees C., and freshly diluted in the appropriate culture media before each assay. In all experiments, in-test concentrations of DMSO were kept below 2%. Fluconazole (Alfa Aesar, Ward Hill, MA, USA) was tested as commercial antifungal.
Antifungal activity was evaluated by determining the MIC of compound 1 by the broth microdilution method, according to CLSI guidelines (reference documents M27-A3 for yeasts and M38-A2 for filamentous fungi). […] The minimal lethal concentration (MLC) was determined by spreading 20 μL of culture collected from wells showing no visible growth on SDA plates. The MLC was determined as the lowest concentration showing complete growth inhibition after 48 h at 35 degrees C., 48 h at 25 degrees C. […]

Mucor spp. = type: cell-based
Procedure: as §1
(§2) Antifungal activity was evaluated by determining the MIC of compound 1 by the broth microdilution method, according to CLSI guidelines (reference documents M27-A3 for yeasts and M38-A2 for filamentous fungi). Briefly, cell or spore suspensions were prepared in RPMI-1640 broth medium (Biochrom, Berlin, Germany) buffered with 3-(N-morpholino)propane sulfonic acid (MOPS) (Sigma-Aldrich, St. Louis, MO, USA) (henceforth referred to as RPMI) from fresh cultures of the different strains of fungi. For yeasts, the inoculum was adjusted to 0.5-2.5×10^3 CFU/mL. For filamentous fungi, the inoculum was adjusted to 1-3×10^3 CFU/mL for dermatophytes, and 0.4-5×10^4 CFU/mL for all other strains. […] Sterility and growth controls were included in each assay. The 96-well flat-bottomed untreated polystyrene microtiter plates which were incubated for 48 h at 35° C., with the exception of Lichetheimia spp. which was incubated at 25° C. for 48 h, and the dermatophyte strains, which incubated for 5-7 days at 25° C. […] Voriconazole (kindly provided by Pfizer Ldt., UK) MIC for C. krusei ATCC 6258 was used as quality control and the assays were validated when the results obtained were within the recommended limits. The minimal lethal concentration (MLC) was determined by spreading 20 μL of culture collected from wells showing no visible growth on SDA plates. The MLC was determined as the lowest concentration showing complete growth inhibition after 48 h at 35 degrees C., 48 h at 25 degrees C. (Lichetheimia spp.) or 5-7 days at 25 degrees C. (dermatophytes). At least two independent assays were performed for all tested strains.

A. flavus F44 = type: cell-based
Procedure: as §1, §2

Fusarium oxysporum FF115 = type: cell-based
Procedure: as §1, §2

A. niger ATCC 16404 = type: cell-based
Procedure: as §1, §2

Scedosporium spp. = type: cell-based
Procedure: as §1, §2

Fusarium solani FF125 = type: cell-based
Procedure: as §1, §2

Lichtheimia spp. = type: cell-based
Procedure: as §1, §2

[1] = test system: Cryptococcus neoformans CECT 1078; type: cell-based
Procedure: as §1, §2

T. mentagrophytes FF7 = type: cell-based
Procedure: as §1, §2

C. glabrata DSY562 = type: cell-based
Procedure: as §1, §2

C. glabrata DSY565 = type: cell-based
Procedure: as §1, §2

[2] = test system: Aspergillus fumigatus ATCC 204305; type: cell-based
Procedure: as §1, §2

[3] = C. krusei ATCC 6258, intrinsically resistant to fluconazole
[4] = Mucor spp., intrinsically resistant to fluconazole
[5] = A. flavus F44, intrinsically resistant to fluconazole
[6] = Fusarium oxysporum FF115, intrinsically resistant to fluconazole
[7] = A. niger ATCC 16404, intrinsically resistant to fluconazole
[8] = Fusarium solani FF125, intrinsically resistant to fluconazole
[9] = Lichtheimia spp., intrinsically resistant to fluconazole
[10] = C. glabrata DSY565, resistant to fluconazole or azoles
[11] = Aspergillus fumigatus ATCC 204305, intrinsically resistant to fluconazole

Row | SMILES | MLC (C. krusei ATCC 6258; [3]) | MLC (Mucor spp.; [4]) | MLC (A. flavus F44; [5]) | MLC (Fusarium oxysporum FF115; [6]) | MLC (A. niger ATCC 16404; [7]) | MLC (Scedosporium spp.) | MLC (Fusarium solani FF125; [8]) | MLC (Lichtheimia spp.; [9]) | MLC [1] | MLC (T. mentagrophytes FF7) | MLC (C. glabrata DSY562) | MLC (C. glabrata DSY565; [10]) | MLC [2, 11] | other results
1 | C[C@H](CCC(=O)NCCN)[C@H]1CC[C@H]2[C@@H]3CC[C@@H]4C[C@H](O)CC[C@]4(C)[C@H]3C[C@H](O)[C@]12C [Compound 1, (R)—N-(2-aminoethyl)-4-((3R,5R,8R,9S,10S,12S,13R,14S,17R)-3,12-dihydroxy-10,13-dimethylhexadecahydro-1H-cyclopenta[a]phenanthren-17-yl) pentanamida] | 64 µg/mL (≈ 147 µM) | 64 µg/mL (≈ 147 µM) | >128 µg/mL | ≥128 µg/mL | 128 µg/mL (≈ 294 µM) | 128 µg/mL (≈ 294 µM) | >128 µg/mL | >128 µg/mL | 64 µg/mL (≈ 147 µM) | 64 µg/mL (≈ 147 µM) | 64 µg/mL (≈ 147 µM) | 64 µg/mL (≈ 147 µM) | ≥128 µg/mL | MIC (C. krusei ATCC 6258; [3]): 64 µg/mL (≈ 147 µM); MIC (Mucor spp.; [4]): 64 µg/mL (≈ 147 µM); MIC (A. flavus F44; [5]): ≥128 µg/mL; MIC (Fusarium oxysporum FF115; [6]): 128 µg/mL (≈ 294 µM); MIC (A. niger ATCC 16404; [7]): 64 µg/mL (≈ 147 µM); MIC (Scedosporium spp.): 64 µg/mL (≈ 147 µM); MIC (Fusarium solani FF125; [8]): 64 µg/mL (≈ 147 µM); MIC (Lichtheimia spp.; [9]): 64 µg/mL (≈ 147 µM); MIC [1]: 32 µg/mL (≈ 73.6 µM); MIC (T. mentagrophytes FF7): 32 µg/mL (≈ 73.6 µM); MIC (C. glabrata DSY562): 64 µg/mL (≈ 147 µM); MIC (C. glabrata DSY565; [10]): 64 µg/mL (≈ 147 µM); MIC [2, 11]: 128 µg/mL (≈ 294 µM)
2 | OC(Cn1cncn1)(Cn1cncn1)c1ccc(F)cc1F [Fluconazole, reference compound] | >128 µg/mL | >128 µg/mL | >128 µg/mL | >128 µg/mL | >128 µg/mL | 16 µg/mL (≈ 52.2 µM) | >128 µg/mL | >128 µg/mL | >32 µg/mL | 32 µg/mL (≈ 104 µM) | >128 µg/mL | >128 µg/mL | >128 µg/mL | MIC (C. krusei ATCC 6258; Pichia kudriavzevii, ATCC6258, read-out: MIC): 32 µg/mL (≈ 104 µM); MIC (Mucor spp.; Mucor, read-out: MIC): > 128 µg/mL; MIC (A. flavus F44; Aspergillus flavus, F44, read-out: MIC): 128 µg/mL (≈ 418 µM); MIC (Fusarium oxysporum FF115; Fusarium oxysporum, FF115, read-out: MIC): 64 µg/mL (≈ 209 µM); MIC (A. niger ATCC 16404; Aspergillus niger, ATCC16404, read-out: MIC): ≥ 128 µg/mL; MIC (Scedosporium spp.; read-out: MIC): 4 µg/mL (≈ 13.1 µM); MIC (Fusarium solani FF125; Fusarium solani, FF125, read-out: MIC): ≥ 128 µg/mL; MIC (Lichtheimia spp.; Lichtheimia, read-out: MIC): 64 µg/mL (≈ 209 µM); MIC ([1]; CECT1078, read-out: MIC): 8 µg/mL (≈ 26.1 µM); MIC (T. mentagrophytes FF7; Trichophyton mentagrophytes, read-out: MIC): 8 µg/mL (≈ 26.1 µM); MIC (C. glabrata DSY562; Nakaseomyces glabratus, read-out: MIC): 4 µg/mL (≈ 13.1 µM); MIC (C. glabrata DSY565; Nakaseomyces glabratus, DSY565): 128 µg/mL (≈ 418 µM); MIC ([2]; Aspergillus fumigatus, ATCC204305, read-out: MIC): ≥ 128 µg/mL
